What was measured:
[1] = biological target: Carbonic anhydrase 12 (Homo sapiens) (UniProt O43570)
Description: Inhibition of human CA12 by CO2 hydration assay

[2] = biological target: Carbonic anhydrase 9 (Homo sapiens) (UniProt Q16790); assay: Inhibition of human CA9 by CO2 hydration assay
[3] = biological target: Carbonic anhydrase 1 (Homo sapiens) (UniProt P00915)
Description: Inhibition of human CA1 by CO2 hydration assay

[4] = biological target: Carbonic anhydrase 2 (Homo sapiens) (UniProt P00918)
Description: Inhibition of human CA2 by CO2 hydration assay

Chain of Carbonic anhydrase 12 (Homo sapiens) (O43570 whole entry): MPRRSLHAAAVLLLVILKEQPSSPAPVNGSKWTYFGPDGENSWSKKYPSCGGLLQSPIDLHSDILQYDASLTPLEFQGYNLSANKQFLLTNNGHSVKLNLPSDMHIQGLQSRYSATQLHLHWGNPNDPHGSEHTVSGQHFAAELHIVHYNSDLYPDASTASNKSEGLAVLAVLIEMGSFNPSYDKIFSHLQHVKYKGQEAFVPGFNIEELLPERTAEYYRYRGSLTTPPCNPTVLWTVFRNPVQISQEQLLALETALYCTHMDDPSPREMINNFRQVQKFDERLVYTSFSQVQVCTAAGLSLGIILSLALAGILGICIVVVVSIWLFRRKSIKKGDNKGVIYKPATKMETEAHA
Chain of Carbonic anhydrase 1 (Homo sapiens) (P00915 2-261 limits assumed): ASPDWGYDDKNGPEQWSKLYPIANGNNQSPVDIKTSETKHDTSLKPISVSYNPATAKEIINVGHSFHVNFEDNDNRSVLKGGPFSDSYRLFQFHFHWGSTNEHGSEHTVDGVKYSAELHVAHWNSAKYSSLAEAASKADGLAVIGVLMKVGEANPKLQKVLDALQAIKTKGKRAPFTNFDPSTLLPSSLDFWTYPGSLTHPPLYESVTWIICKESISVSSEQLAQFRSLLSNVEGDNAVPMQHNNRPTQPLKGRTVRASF

Ki [1] [µM]	Ki [2] [µM]	Ki [3] [µM]	Ki [4] [µM]	Compound
> 100	> 100			O=c1ccc2ccccc2o1
7.03	4.92	86.9	> 100	O=c1cc(Cl)c2ccccc2o1
0.735	0.359	72.8	> 100	O=c1cc(CCl)c2ccc(Cl)cc2o1
8.02	0.478	> 100	> 100	O=c1cc(CCl)c2ccc(O)cc2o1
9.6	0.508	79.4	> 100	O=c1oc2ccccc2cc1O
	0.482	58.4		O=c1ccc2ccc(O)cc2o1
0.683	0.198	> 100	> 100	O=c1ccc2cc(O)ccc2o1

Compound	Ki [1] [µM]	Ki [2] [µM]	Ki [3] [µM]	Ki [4] [µM]
O=c1cc(O)c2ccccc2o1	6.3	0.418	95	> 100

Reference: ChEMBL document CHEMBL1208713, “Coumarins incorporating hydroxy- and chloro-moieties selectively inhibit the transmembrane, tumor-associated carbonic anhydrase isoforms IX and XII over the cytosolic ones I and II” (Bioorg Med Chem Lett, 2010)
